# Measured values: patent US8741897B2, “Glucocorticoid mimetics, methods of making them, pharmaceutical compositions and uses thereof” (Boehringer Ingelheim Pharmaceuticals Inc., priority 2003, dated 2014)
# System: glucocorticoid receptor function
# Experiment: one or more of the above assays (GR binding and glucocorticoid receptor cell assays: aromatase, IL-6, TAT, MMTV-Luc, IL-8, ICAM-Luc)
# Type: cell-based
# Conditions: assay not specified per compound
row,SMILES,activity as agonists of the glucocorticoid receptor function in one or more of the above assays
1,"CC(C)(CC(O)(Cc1cc2ccncc2[nH]1)C(F)(F)F)c1cc(-c2ccsc2)ccc1O (stereo not drawn) [4-Thiophen-3-yl-2-[4,4,4-trifluoro-3-hydroxy-1,1-dimethyl-3-(1H-pyrrolo[2,3-c]pyridin-2-ylmethyl)butyl]phenol]",potent agonists
2,"CC(C)C(=O)c1ccc2[nH]c(CC(O)(CC(C)(C)c3cc(Cl)cc4c3OCC4)C(F)(F)F)cc2n1 (stereo not drawn) [1-{2-[4-(5-Chloro-2,3-dihydrobenzofuran-7-yl)-2-hydroxy-4-methyl-2-trifluoromethylpentyl]-1H-pyrrolo[3,2-b]pyridin-5-yl}-2-methylpropan-1-one]",potent agonists
3,"CC(C)(CC(O)(Cc1cc2cc(-c3cncnc3)ccc2[nH]1)C(F)(F)F)c1cc(F)cc2c1OCC2 (stereo not drawn) [1,1,1-Trifluoro4-(5-fluoro-2,3-dihydrobenzofuran-7-yl)-4-methyl-2-(5-pyrimidin-5-yl-1H-indol-2-ylmethyl)pentan-2-ol]",potent agonists
4,"COc1ccc(-c2ccsc2)cc1C(C)(C)CC(O)(Cc1cc2cc(Cl)ncc2[nH]1)C(F)(F)F (stereo not drawn) [2-(5-Chloro-1H-pyrrolo[2,3-c]pyridin-2-ylmethyl)-1,1,1-trifluoro-4-(2-methoxy-5-thiophen-3-ylphenyl)-4-methylpentan-2-ol]",potent agonists
5,"CC(C)(CC(O)(Cc1cc2cc(N3CCOCC3)ncc2[nH]1)C(F)(F)F)c1ccc(F)cc1 (stereo not drawn) [1,1,1-Trifluoro-4-(4-fluorophenyl)-4-methyl-2-(5-morpholin-4-yl-1H-pyrrolo[2,3-c]pyridin-2-ylmethyl)pentan-2-ol]",potent agonists
6,"Cc1ccc(F)cc1C(C)(C)CC(O)(Cc1cc2cc(N3CCCC3)ncc2[nH]1)C(F)(F)F (stereo not drawn) [1,1,1-Trifluoro-4-(5-fluoro-2-methylphenyl)-4-methyl-2-(5-pyrrolidin-1-yl-1H-pyrrolo[2,3-c]pyridin-2-ylmethyl)pentan-2-ol]",potent agonists
7,"Cc1ccc(F)cc1C(C)(C)CC(O)(Cc1cc2cc(OS(=O)(=O)C(F)(F)F)ncc2[nH]1)C(F)(F)F (stereo not drawn) [Trifluoromethanesulfonic acid 2-[4-(5-fluoro-2-methylphenyl)-2-hydroxy-4-methyl-2-trifluoromethylpentyl]-1H-pyrrolo[2,3-c]pyridin-5-yl ester]",potent agonists
8,"CC(C)(CC(O)(Cc1cc2nc(Cl)ncc2[nH]1)C(F)(F)F)c1cc(Cl)cc2c1OCC2 (stereo not drawn) [4-(5-Chloro-2,3-dihydrobenzofuran-7-yl)-2-(2-chloro-5H-pyrrolo[3,2-d]pyrimidin-6-ylmethyl)-1,1,1-trifluoro-4-methylpentan-2-ol]",potent agonists
9,"CC(C)(CC(O)(Cc1cc2nc(-c3ccccc3)ncc2[nH]1)C(F)(F)F)c1cc(F)ccc1O (stereo not drawn) [4-Fluoro-2-[4,4,4-trifluoro-3-hydroxy-1,1-dimethyl-3-(2-phenyl-5H-pyrrolo[3,2-d]pyrimidin-6-ylmethyl)butyl]phenol]",potent agonists
10,"Cc1nccc2[nH]c(CC(O)(CC(C)(C)c3cc(-c4cccnc4)ccc3O)C(F)(F)F)cc12 (stereo not drawn) [4-Pyridin-3-yl-2-[4,4,4-trifluoro-3-hydroxy-1,1-dimethyl-3-(4-methyl-1H-pyrrolo[3,2-c]pyridin-2-ylmethyl)butyl]phenol]",potent agonists
11,"COc1ccc(F)cc1C(C)(C)CC(O)(Cc1cc2nc(N3CCCC3)ncc2[nH]1)C(F)(F)F (stereo not drawn) [1,1,1-Trifluoro-4-(5-fluoro-2-methoxyphenyl)-4-methyl-2-(2-pyrrolidin-1-yl-5H-pyrrolo[3,2-d]pyrimidin-6-ylmethyl)pentan-2-ol]",potent agonists
12,"COc1ccc(-c2ccccc2)cc1C(C)(C)CC(O)(Cc1cc2cc(OC(C)C)ncc2[nH]1)C(F)(F)F (stereo not drawn) [1,1,1-Trifluoro-2-(5-isopropoxy-1H-pyrrolo[2,3-c]pyridin-2-ylmethyl)-4-(4-methoxybiphenyl-3-yl)-4-methylpentan-2-ol]",potent agonists
13,"COc1ccc(-c2cccnc2)cc1C(C)(C)CC(O)(Cc1cc2cc(Oc3ccccc3)ncc2[nH]1)C(F)(F)F (stereo not drawn) [1,1,1-Trifluoro-4-(2-methoxy-5-pyridin-3-ylphenyl)-4-methyl-2-(5-phenoxy-1H-pyrrolo[2,3-c]pyridin-2-ylmethyl)pentan-2-ol]",potent agonists
14,"Cc1nccc2[nH]c(CC(O)(CC(C)(C)c3cc(-c4ccccc4)ccc3O)C(F)(F)F)cc12 (stereo not drawn) [3-[4,4,4-Trifluoro-3-hydroxy-1,1-dimethyl-3-(4-methyl-1H-pyrrolo[3,2-c]pyridin-2-ylmethyl)butyl]biphenyl-4-ol]",potent agonists
15,"CC(C)(CC(O)(Cc1cc2nnccc2[nH]1)C(F)(F)F)c1cc(F)ccc1O (stereo not drawn) [4-Fluoro-2-[4,4,4-trifluoro-3-hydroxy-1,1-dimethyl-3-(5H-pyrrolo[3,2-c]pyridazin-6-ylmethyl)butyl]phenol]",potent agonists
16,"COc1ccc(-c2cncnc2)cc1C(C)(C)CC(O)(Cc1cc2cc(O)ncc2[nH]1)C(F)(F)F (stereo not drawn) [2-[2-Hydroxy-4-(2-methoxy-5-pyrimidin-5-ylphenyl)-4-methyl-2-trifluoromethylpentyl]-1H-pyrrolo[2,3-c]pyridin-5-ol]",potent agonists
17,"CC(C)Oc1cc2cc(CC(O)(CC(C)(C)c3cc(F)ccc3C(F)(F)F)C(F)(F)F)[nH]c2cn1 (stereo not drawn) [1,1,1-Trifluoro-4-(5-fluoro-2-trifluoromethylphenyl)-2-(5-isopropoxy-1H-pyrrolo[2,3-c]pyridin-2-ylmethyl)-4-methylpentan-2-ol]",potent agonists
18,"CC(C)(CC(O)(Cc1cc2cnccc2[nH]1)C(F)(F)F)c1cccc(-c2cncnc2)c1 (stereo not drawn) [1,1,1-Trifluoro-4-methyl-4-(3-pyrimidin-5-ylphenyl)-2-(1H-pyrrolo[3,2-c]pyridin-2-ylmethyl)pentan-2-ol]",potent agonists
19,"COc1ccc(-c2cccnc2)cc1C(C)(C)CC(O)(Cn1ccc2c1CCCC2=O)C(F)(F)F (stereo not drawn) [1-[2-Hydroxy-4-(2-methoxy-5-pyridin-3-ylphenyl)-4-methyl-2-trifluoromethylpentyl]-1,5,6,7-tetrahydroindol-4-one]",agonists
20,"CC(C)(CC(O)(Cc1cc2ncncc2[nH]1)C(F)(F)F)c1ccc(F)cc1O (stereo not drawn) [5-Fluoro-2-[4,4,4-trifluoro-3-hydroxy-1,1-dimethyl-3-(5H-pyrrolo[3,2-d]pyrimidin-6-ylmethyl)butyl]phenol]",potent agonists
21,"Cc1ccc(F)cc1C(C)(C)CC(O)(Cc1cc2ccncc2[nH]1)C(C)(C)C (stereo not drawn) [5-(5-Fluoro-2-methylphenyl)-2,2,5-trimethyl-3-(1H-pyrrolo[2,3-c]pyridin-2-ylmethyl)hexan-3-ol]",agonists
